Like-named read-outs stand apart in the source and are kept apart here.

One data set addresses KRAS Q61H (Homo sapiens, UniProt P01116+P62937, Q61H). The experiment in a line: Disruption of BRAF RBD interaction with K-Ras (FRET / MOA assay). The format is biochemical. On the procedure:
(§1) Compound is present in plate wells as a 10-point 3-fold dilution series starting at a final concentration of 30 μM. […] Compounds that facilitate disruption of a Ras:RAF complex are identified as those eliciting a decrease in the TR-FRET ratio relative to DMSO control wells.
(§2) Note—The following protocol describes a procedure for monitoring disruption of K-Ras G12C (GMP-PNP) binding to BRAF^RBD by a compound of the invention. This protocol may also be executed substituting other Ras proteins or nucleotides.
(§3) The purpose of this biochemical assay was to measure the ability of test compounds to facilitate ternary complex formation between a nucleotide-loaded K-Ras isoform and Cyclophilin A; the resulting ternary complex disrupts binding to a BRAF^RBD construct, inhibiting K-Ras signaling through a RAF effector. Data is reported as IC50 values.
(§4) Compound was present in plate wells as a 10-point 3-fold dilution series starting at a final concentration of 30 μM. […] Compounds that facilitate disruption of a K-Ras:RAF complex were identified as those eliciting a decrease in the TR-FRET ratio relative to DMSO control wells.

The next data set deals with KRAS G12C (Homo sapiens, UniProt P01116+P62937, G12C). The data set is described as above. In kind it is biochemical. On the procedure:
as §1, §2, §3, §4

A further data set concerns the target NRAS Q61K (Homo sapiens, UniProt P01111+P62937, Q61K). The experiment in a line: Disruption of BRAF RBD interaction with Ras (FRET / MOA assay). In kind it is biochemical. In a few lines:
(§5)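 TR-FRET readout: a drop in ratio versus DMSO wells marks disruption of the Ras:BRAF^RBD complex, reported as IC50. Compound acts via a Cyclophilin A ternary complex with nucleotide-loaded Ras (e.g., GMP-PNP). Top final concentration was 30 μM, 10 points, 3-fold steps.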

A further data set concerns the target NRAS Q61R (Homo sapiens, UniProt P01111+P62937, Q61R). The data set is described as above. In kind it is biochemical. In a few lines:
as §5

The target of the next data set is NRAS WT (Homo sapiens, UniProt P01111+P62937). The data set is described as above. In kind it is biochemical. In a few lines:
as §5

Another data set has as its system SWi573. The settings on record: cited from earlier work.
Another data set deals with NRAS G12C (Homo sapiens, UniProt P01111+P62937, G12C). The experiment in a line: Disruption of BRAF RBD interaction with Ras (FRET / MOA assay). The format is biochemical. In a few lines: as §5
The next data set has as its system NCI-H358 (K-Ras G12C). The experiment in a line: CellTiter-Glo Cell Viability Assay. The settings on record: Homo sapiens, NCI-H358, 120 h; H358, 5-day treatment. In kind it is cell-based. As to the method: (§6) Determination of Cell Viability in RAS Mutant Cancer Cell Lines
(§7) Protocol: CellTiter-Glo® Cell Viability Assay
(§8) Note—The following protocol describes a procedure for monitoring cell viability of K-Ras mutant cancer cell lines in response to a compound of the invention. Other RAS isoforms may be employed, though the number of cells to be seeded will vary based on cell line used.
(§9) Test compounds (132.5 nl) were directly dispensed into the assay plates containing cells. […] On day 5, assay plates and their contents were equilibrated to room temperature for approximately 30 minutes. […] Luminescence was measured using the PerkinElmer Enspire. Data were normalized by the following: (Sample signal/Avg. DMSO)*100. The data were fit using a four-parameter logistic fit.

For a further data set, the system named is Capan-1 (K-Ras G12V). The experiment in a line: CellTiter-Glo Cell Viability Assay. The settings on record: Homo sapiens, 120 h; Capan-1, 5-day treatment. The format is cell-based. On the procedure: as §6, §7, §8, §9
In another data set the target is KRAS G13C (Homo sapiens, UniProt P01116+P62937, G13C). The experiment in a line: Disruption of BRAF RBD interaction with K-Ras (FRET / MOA assay). In kind it is biochemical. The settings on record: read-out: KRAS G13C FRET data IC50. As to the method:
as §1, §2, §3, §4

Another data set deals with KRAS G12V (Homo sapiens, UniProt P01116+P62937, G12V). The description is as above. The format is biochemical. The settings on record: read-out: KRAS G12V FRET data IC50. As to the method: as §1, §2, §3, §4
The mark [1] stands for this setting: read-out: KRAS Q61H FRET data IC50.
The mark [2] stands for this setting: read-out: KRAS G12C FRET data IC50.
Setting [3] is: read-out: NRAS Q61K FRET data IC50.
The mark [4] stands for this setting: read-out: NRAS Q61R FRET data IC50.
Where [5] appears, read: read-out: NRAS WT FRET data IC50.

Sequence of NRAS WT (P01111 whole entry): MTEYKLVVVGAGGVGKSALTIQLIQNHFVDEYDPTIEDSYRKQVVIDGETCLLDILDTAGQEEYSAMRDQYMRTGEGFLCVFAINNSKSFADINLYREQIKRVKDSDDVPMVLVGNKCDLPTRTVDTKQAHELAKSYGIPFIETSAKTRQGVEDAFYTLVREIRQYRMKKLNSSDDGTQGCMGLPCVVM
Sequence of NRAS WT (P62937 whole entry): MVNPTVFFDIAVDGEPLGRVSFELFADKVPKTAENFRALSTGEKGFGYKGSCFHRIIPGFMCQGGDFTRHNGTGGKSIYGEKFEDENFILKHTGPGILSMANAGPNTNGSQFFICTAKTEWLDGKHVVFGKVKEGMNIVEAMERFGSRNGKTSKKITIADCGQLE
Sequence of NRAS Q61R (P01111 whole entry Q61R): as the sequence (P01111 whole entry) above, with Q61R counted along it
Sequence of NRAS Q61R (P62937 whole entry): as the sequence (P62937 whole entry) above
Sequence of KRAS Q61H (P01116 1-188 isoform P01116-2 Q61H): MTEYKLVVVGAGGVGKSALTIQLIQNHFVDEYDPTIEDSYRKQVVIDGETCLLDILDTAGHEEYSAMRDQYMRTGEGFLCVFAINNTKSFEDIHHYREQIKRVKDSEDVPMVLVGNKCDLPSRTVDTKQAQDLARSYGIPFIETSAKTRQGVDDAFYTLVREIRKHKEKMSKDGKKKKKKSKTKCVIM
Sequence of KRAS Q61H (P62937 whole entry): as the sequence (P62937 whole entry) above
Sequence of KRAS G12C (P01116 1-188 isoform P01116-2 G12C): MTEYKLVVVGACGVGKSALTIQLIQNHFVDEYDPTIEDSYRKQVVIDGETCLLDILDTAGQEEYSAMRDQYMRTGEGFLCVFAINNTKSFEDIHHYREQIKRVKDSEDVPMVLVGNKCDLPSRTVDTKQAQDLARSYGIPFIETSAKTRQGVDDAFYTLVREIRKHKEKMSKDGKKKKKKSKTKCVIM
Sequence of KRAS G12C (P62937 whole entry): as the sequence (P62937 whole entry) above
Sequence of NRAS Q61K (P01111 whole entry Q61K): as the sequence (P01111 whole entry) above, with Q61K counted along it
Sequence of NRAS Q61K (P62937 whole entry): as the sequence (P62937 whole entry) above
Sequence of KRAS G13C (P01116 1-188 isoform P01116-2 G13C): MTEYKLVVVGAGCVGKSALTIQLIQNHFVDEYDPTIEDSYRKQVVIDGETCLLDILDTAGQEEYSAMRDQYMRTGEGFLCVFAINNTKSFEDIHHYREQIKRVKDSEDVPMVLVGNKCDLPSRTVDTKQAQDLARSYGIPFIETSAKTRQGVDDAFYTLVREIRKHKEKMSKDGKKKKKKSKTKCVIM
Sequence of KRAS G13C (P62937 whole entry): as the sequence (P62937 whole entry) above
Sequence of NRAS G12C (P01111 whole entry G12C): as the sequence (P01111 whole entry) above, with G12C counted along it
Sequence of NRAS G12C (P62937 whole entry): as the sequence (P62937 whole entry) above
Sequence of KRAS G12V (P01116 1-188 isoform P01116-2 G12V): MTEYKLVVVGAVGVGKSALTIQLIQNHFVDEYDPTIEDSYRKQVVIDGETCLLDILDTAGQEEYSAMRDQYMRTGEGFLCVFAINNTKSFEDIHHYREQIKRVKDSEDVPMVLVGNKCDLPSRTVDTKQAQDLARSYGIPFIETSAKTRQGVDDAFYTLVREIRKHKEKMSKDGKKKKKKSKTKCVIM
Sequence of KRAS G12V (P62937 whole entry): as the sequence (P62937 whole entry) above

As to `CO[C@@H](C)c1ncccc1-c1c2c3cc(ccc3n1CC(F)(F)F)-c1csc(n1)C[C@H](NC(=O)[C@H](C(C)C)N(C)C(=O)N1CC(N(C)C)C1)C(=O)N1CCC[C@H](N1)C(=O)OCC(C)(C)C2` (atropisomer, axis not shown) [Compound A328], the IC50 on KRAS Q61H (setting [1]), on KRAS G12C (setting [2]), on NRAS Q61K (setting [3]), at NRAS Q61R (setting [4]) and on NRAS WT (setting [5]) was more than 10 µM in each case.

On to `CCn1c(-c2cccnc2[C@H](C)OC)c2c3cc(ccc31)-c1cc(cc(S(C)(=O)=O)c1)C[C@H](NC(=O)[C@H](C(C)C)N(C)C(C)=O)C(=O)N1CCC[C@H](N1)C(=O)OCC(C)(C)C2` (racemic) [Compound A154], for which the IC50 on KRAS Q61H (setting [1]), on KRAS G12C (setting [2]), at NRAS Q61K (setting [3]), on NRAS Q61R (setting [4]) and on NRAS WT (setting [5]) was more than 10 µM throughout.

As to `CCn1c(-c2cc(N3CCN(C(=O)OCc4ccccc4)CC3)cnc2[C@H](C)OC)c2c3cc(ccc31)-c1csc(n1)C[C@H](NC(=O)OC(C)(C)C)C(=O)N1CCC[C@H](N1)C(=O)OCC(C)(C)C2`, where the note is “from CCn1c(-c2cc(N3CCN(C(=O)OCc4ccccc4)CC3)cnc2[C@H](C)OC)c(CC(C)(C)CO)c2cc(-c3csc(C[C@H](NC(=O)OC(C)(C)C)C(=O)N4CCC[C@@H](C(=O)O)N4)n3)ccc21, ester bond, EDCl/HOBt/DIPEA, MeCN, 10.34 mM, 25.0 °C, 16.0 h”, the ring closure, yield of all isomers was found to be 54.8%.

With `CCn1c(-c2cccnc2[C@H](C)OC)c2c3cc(ccc31)-c1csc(n1)[C@@H](OC)[C@H](N(Cc1ccccc1)Cc1ccccc1)C(=O)N1CCC[C@H](N1)C(=O)OCC(C)(C)C2`, the ring closure, yield of all isomers (from CCn1c(-c2cccnc2[C@H](C)OC)c(CC(C)(C)COC(=O)[C@@H]2CCCN(C(=O)[C@H]([C@H](OC)c3nc(Br)cs3)N(Cc3ccccc3)Cc3ccccc3)N2)c2cc(B3OC(C)(C)C(C)(C)O3)ccc21, cc_pd bond, Pd(DtBPF)Cl2, dioxane, 40.0 mM, 80.0 °C, 2.0 h) is 44.4%.

Consider `C=CC(=O)N1CCN(c2nc(=O)n(-c3c(C)ccnc3C(C)C)c3nc(-c4c(O)cccc4F)c(F)cc23)[C@@H](C)C1` [AMG510], for which the “sensitivity of SWi573 to inhibitor” value in the data set on SWi573 is reported as “insensitive”.

`CCn1c(-c2cccnc2[C@H](C)OC)c2c3cc(ccc31)-c1csc(n1)C[C@H](NC(=O)OC(C)(C)C)C(=O)N1CC[C@H](C)[C@H](N1)C(=O)OCC(C)(C)C2` showed a ring closure, yield of all isomers (from CCn1c(-c2cccnc2[C@H](C)OC)c(CC(C)(C)COC(=O)[C@H]2NN(C(=O)[C@H](Cc3nc(Br)cs3)NC(=O)OC(C)(C)C)CC[C@@H]2C)c2cc(B3OC(C)(C)C(C)(C)O3)ccc21, cc_pd bond, Pd(DTBpf)Cl2, K3PO4, dioxane, 17.5 mM, 60.0 °C, 1.0 h) of 44.7%.

As to `CCn1c(-c2cccnc2[C@H](C)OC)c2c3cc(ccc31)-c1cc(O)cc(c1)C[C@H](NC(=O)[C@H](C(C)C)N(C)C(=O)[C@@H]1C[C@@H]1O)C(=O)N1CCC[C@H](N1)C(=O)OCC(C)(C)C2` (atropisomer, axis not shown) [Compound A323], the IC50 on KRAS G12C (setting [2]) and at NRAS G12C was less than 0.01 µM in each case.

`CCn1c(-c2cc(N3CCN(C)CC3)cnc2[C@H](C)OC)c2c3cc(ccc31)-c1csc(n1)C[C@H](NC(=O)[C@H](C(C)C)N(C)C(=O)N1CC(C3COC3)C1)C(=O)N1CCC[C@H](N1)C(=O)OCC(C)(C)C2` (atropisomer, axis not shown) [Compound A465]: the IC50 is less than 0.01 µM with NCI-H358 (K-Ras G12C), less than 0.01 µM with Capan-1 (K-Ras G12V), 0.01 to 0.1 µM on NRAS Q61K (setting [3]) and 0.01 to 0.1 µM at NRAS Q61R (setting [4]).

As to `CCn1c(-c2cccnc2[C@H](C)OC)c2c3cc(ccc31)-c1cc(O)cc(c1)C[C@H](NC(=O)[C@H](C(C)C)N(C)C(=O)[C@@H]1CN(C(=O)OC)C[C@@H]1C)C(=O)N1CCC[C@H](N1)C(=O)OCC(C)(C)C2` (atropisomer, axis not shown) [Compound A325], the IC50 with NCI-H358 (K-Ras G12C), at KRAS G13C, on KRAS G12C (setting [2]), at KRAS G12V and at NRAS G12C was less than 0.01 µM throughout.

For the molecule `CCn1c(-c2cccnc2[C@H](C)OC)c2c3cc(ccc31)-c1cc(cc(NC(C)=O)c1)C[C@H](NC(=O)[C@H](C(C)C)N(C)C(C)=O)C(=O)N1CCC[C@H](N1)C(=O)OCC(C)(C)C2` (racemic) [Compound A145], the IC50 at KRAS Q61H was 1 to 10 µM; at KRAS G12C, more than 10 µM; on NRAS Q61K it was more than 10 µM; against NRAS Q61R it was more than 10 µM; at NRAS WT it was more than 10 µM.

As to `CCn1c(-c2cc(N3CCN(C)CC3)cnc2[C@H](C)OC)c2c3cc(ccc31)-c1csc(n1)C[C@H](NC(=O)[C@H](C(C)C)N(C)C(=O)[C@@H]1OCC[C@@H]1c1ccncc1)C(=O)N1CCC[C@H](N1)C(=O)OCC(C)(C)C2` (atropisomer, axis not shown) [Compound A450], the IC50 with NCI-H358 (K-Ras G12C) is less than 0.01 µM; in the data set on Capan-1 (K-Ras G12V), less than 0.01 µM; on NRAS Q61K (setting [3]) it was 0.01 to 0.1 µM; at NRAS Q61R (setting [4]), 0.01 to 0.1 µM.

Take `CCn1c(-c2cccnc2[C@H](C)OC)c2c3cc(ccc31)-c1cc(O)cc(c1)C[C@H](NC(=O)[C@H](C(C)C)N(C)C(=O)[C@H]1CCN(C(=O)C(C)(C)NC)C1)C(=O)N1CCC[C@H](N1)C(=O)OCC(C)(C)C2` (atropisomer, axis not shown) [Compound A381]: the IC50 at KRAS G13C was less than 0.01 µM.

Consider `CCn1c(-c2cc(N3CCN(C)CC3)cnc2[C@H](C)OC)c2c3cc(ccc31)-c1csc(n1)C[C@H](NC(=O)[C@H](C1CCCC1)N(C)C(=O)[C@@H]1OCC[C@@H]1c1ccccc1)C(=O)N1CCC[C@H](N1)C(=O)OCC(C)(C)C2` (atropisomer, axis not shown) [Compound A593], for which the IC50 was less than 0.01 µM with NCI-H358 (K-Ras G12C), less than 0.01 µM with Capan-1 (K-Ras G12V) and 0.01 to 0.1 µM at NRAS Q61R (setting [4]).

With `CCn1c(-c2cccnc2[C@H](C)OC)c2c3cc(ccc31)-c1cc(O)cc(c1)C[C@H](NS(=O)(=O)CC#N)C(=O)N1CCC[C@H](N1)C(=O)OCC(C)(C)C2` (racemic) [Compound A186], the IC50 at KRAS Q61H (setting [1]), on KRAS G12C, on NRAS Q61K (setting [3]), against NRAS Q61R and on NRAS WT (setting [5]) was more than 10 µM each time.

`CC(C)[Si](Oc1cc2cc(c1)-c1ccc3[nH]c(I)c(c3c1)CC(C)(C)COC(=O)[C@@H]1CCCN(N1)C(=O)[C@@H](NC(=O)OC(C)(C)C)C2)(C(C)C)C(C)C` came in with a ring closure, yield of all isomers (from CC(C)[Si](Oc1cc(C[C@H](NC(=O)OC(C)(C)C)C(=O)N2CCC[C@@H](C(=O)O)N2)cc(-c2ccc3[nH]c(I)c(CC(C)(C)CO)c3c2)c1)(C(C)C)C(C)C, ester bond, EDCl/HOBt/DIPEA, DCM, 22.8 mM, 25.0 °C, 16.0 h) of 50%.

Consider `CCn1c(-c2cccnc2[C@H](C)OC)c2c3cc(ccc31)-c1cc(O)cc(c1)C[C@H](NS(=O)(=O)N1CCC1)C(=O)N1CCC[C@H](N1)C(=O)OCC(C)(C)C2` (racemic) [Compound A189], for which the IC50 on KRAS Q61H (setting [1]), at KRAS G12C (setting [2]), at NRAS Q61K (setting [3]), on NRAS Q61R (setting [4]) and on NRAS WT (setting [5]) was more than 10 µM in each case.

In the case of `CCn1c(-c2cccnc2[C@H](C)OC)c2c3cc(ccc31)-c1csc(n1)C[C@H](NC(=O)OC(C)(C)C)C(=O)N1CCC[C@H](N1)C(=O)OCC(C)(C)C2`, for the setting “from CCn1c(-c2cccnc2[C@H](C)OC)c(CC(C)(C)CO)c2cc(-c3csc(C[C@H](NC(=O)OC(C)(C)C)C(=O)N4CCC[C@@H](C(=O)O)N4)n3)ccc21, ester bond, EDCl/HOBt/DIPEA, DCM, 12.65 mM, 25.0 °C, 16.0 h”, the ring closure, yield of all isomers amounted to 81%.

The values above are taken from US20230374035A1, “RAS INHIBITORS” (Revolution Medicines, Inc., priority 2019, published 2023).
